# Assay results reported in US6103732A, “Carboxylic acid derivatives, their production and use” (BASF Aktiengesellschaft, priority 1996, dated 2000).
# Where two headings read alike, the source gives them in different places.
# Experiments:
# human ETA receptor = target: T1, human ETA receptor (Homo sapiens, UniProt P25101); experiment: Receptor binding assay, ETA ([125I]-ET1, membranes of ETA receptor-expressing CHO cells)
# T1 construct: expressed in transfected cells; host or cells: CHO cells
# T1 sequence (P25101 21-427): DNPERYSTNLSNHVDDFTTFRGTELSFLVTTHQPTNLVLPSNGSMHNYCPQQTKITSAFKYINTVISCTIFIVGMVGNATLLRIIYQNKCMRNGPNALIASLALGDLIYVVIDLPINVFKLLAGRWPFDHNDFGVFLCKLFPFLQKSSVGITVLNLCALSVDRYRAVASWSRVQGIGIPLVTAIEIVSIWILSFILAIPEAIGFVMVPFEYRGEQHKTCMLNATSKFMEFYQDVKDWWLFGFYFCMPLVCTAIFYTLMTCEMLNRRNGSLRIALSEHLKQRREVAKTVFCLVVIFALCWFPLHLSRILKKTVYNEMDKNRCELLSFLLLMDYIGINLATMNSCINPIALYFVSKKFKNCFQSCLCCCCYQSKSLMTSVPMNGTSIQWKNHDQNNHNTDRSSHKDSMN
# Experimental: (§1) Cloned human ETA receptor-expressing CHO cells and guinea pig cerebellar membranes with >60% ETB compared with ETA receptors were used for binding studies.
# The ETA receptor-expressing CHO cells were grown in F12 medium containing 10% fetal calf serum, 1% glutamine, 100 E/ml penicillin and 0.2% streptomycin (Gibco BRL, Gaithersburg, Md., USA). After 48 h, the cells were washed with PBS and incubated with 0.05% trypsin-containing PBS for 5 min. Neutralization was then carried out with F12 medium and the cells were collected by centrifugation at 300×g. To lyse the cells, the pellet was briefly washed with lysis buffer (5 mM tris-HCl, pH 7.4 with 10% glycerol) and then incubated at a concentration of 10^7 cells/ml of lysis buffer at 4° C. for 30 min. The membranes were centrifuged at 20,000×g for 10 min, and the pellet was stored in liquid nitrogen.
# (§2) The nonspecific binding was determined with 10^-7 M ET1. After 30 min, filtration was carried out through GF/B glass fiber filters (Whatman, England) in a Skatron cell collector (Skatron, Lier, Norway) to separate free and bound radioligands, and the filters were washed with ice-cold tris-HCl buffer, pH 7.4 with 0.2% BSA. The radioactivity collected on the filters was quantified using a Packard 2200 CA liquid scintillation counter.
# ETB receptor = target: T2, ETB receptor (Cavia porcellus, UniProt H0VTF3); experiment: Receptor binding assay, ETB ([125I]-RZ3, guinea pig cerebellar membranes)
# T2 construct: Guinea pig cerebella were homogenized in a Potter-Elvejhem homogenizer; from tissue; host or cells: guinea pig cerebellum (membranes)
# T2 sequence (H0VTF3 27-415): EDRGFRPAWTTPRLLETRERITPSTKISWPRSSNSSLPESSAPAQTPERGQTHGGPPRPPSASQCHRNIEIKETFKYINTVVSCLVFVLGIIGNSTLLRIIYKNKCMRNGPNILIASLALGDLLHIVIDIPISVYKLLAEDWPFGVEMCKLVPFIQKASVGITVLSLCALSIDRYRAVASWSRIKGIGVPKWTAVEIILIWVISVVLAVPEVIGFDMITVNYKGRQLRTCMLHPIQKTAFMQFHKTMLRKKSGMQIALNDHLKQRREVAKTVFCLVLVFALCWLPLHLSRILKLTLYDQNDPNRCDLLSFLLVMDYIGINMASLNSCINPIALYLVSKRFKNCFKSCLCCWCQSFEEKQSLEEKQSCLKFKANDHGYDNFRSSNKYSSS
# Experimental: as §1
# Guinea pig cerebella were homogenized in a Potter-Elvejhem homogenizer and were obtained by differential centrifugation at 1,000×g for 10 min and repeated centrifugation of the supernatent at 20,000×g for 10 min.
# as §2
# [1] = cloned human ETA receptor-expressing CHO cell membranes, 25 pM [125I]-ET1, 30 min, read-out: Receptor binding data (Ki values) ETA
# [2] = guinea pig cerebellar membranes (>60% ETB compared with ETA receptors), 25 pM [125I]-RZ3, 30 min, read-out: Receptor binding data (Ki values) ETB
Ki (human ETA receptor; [1]) [µM],Ki (ETB receptor; [2]) [µM],Structure (SMILES),Ki (human ETA receptor) [µM],Ki (ETB receptor) [µM]
0.5,4,"COC(c1ccccc1)(c1ccccc1)C(Oc1cc(C)c2ccccc2n1)C(=O)O (centres unmarked) [Compound I-166, 2-(4-Methyl-2-quinolinyloxy)-3-methoxy-3,3-diphenylpropionic acid]",,
3,> 7,COC(c1ccccc1)(c1ccccc1)C(Oc1ccc2ccccc2n1)C(=O)O (centres unmarked) [Compound I-167],,
,,"COc1cc(OC(C(=O)O)C(OC)(c2ccccc2)c2ccccc2)nc(OC)n1 (centres unmarked) [Compound I-1, 2-(2,6-Dimethoxy-4-pyrimidinyloxy)-3-methoxy-3,3-diphenyl-propionic acid]",0.038,8
3.3,> 10,"COC(c1ccccc1)(c1ccccc1)C(Oc1cc(C(F)(F)F)nc(C(C)(C)C)n1)C(=O)O (centres unmarked) [Compound I-91, 2-(2-tert-Butyl-6-trifluoromethyl-4-pyrimidinyloxy)-3-methoxy-3,3-diphenylpropionic acid]",,
